According to ChEMBL document CHEMBL1201862, “PubChem BioAssay data set” (2004):
Active and inactive are the calls of the source.

Tests used:
Assay type in all cases: functional
[1] = biological target: T1, Microphthalmia-associated transcription factor (Homo sapiens, UniProt O75030); assay: reducers of TRPM1 reporter luminescence, concentration series – cell-based, SK-MEL-5, cherry-picked, set 3, MITF inhibitor project, dose response (AID 493073);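 further: SK-MEL-5 melanoma cells with luciferase driven by the MITF target TRPM1 promoter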
T1 sequence (O75030 whole entry): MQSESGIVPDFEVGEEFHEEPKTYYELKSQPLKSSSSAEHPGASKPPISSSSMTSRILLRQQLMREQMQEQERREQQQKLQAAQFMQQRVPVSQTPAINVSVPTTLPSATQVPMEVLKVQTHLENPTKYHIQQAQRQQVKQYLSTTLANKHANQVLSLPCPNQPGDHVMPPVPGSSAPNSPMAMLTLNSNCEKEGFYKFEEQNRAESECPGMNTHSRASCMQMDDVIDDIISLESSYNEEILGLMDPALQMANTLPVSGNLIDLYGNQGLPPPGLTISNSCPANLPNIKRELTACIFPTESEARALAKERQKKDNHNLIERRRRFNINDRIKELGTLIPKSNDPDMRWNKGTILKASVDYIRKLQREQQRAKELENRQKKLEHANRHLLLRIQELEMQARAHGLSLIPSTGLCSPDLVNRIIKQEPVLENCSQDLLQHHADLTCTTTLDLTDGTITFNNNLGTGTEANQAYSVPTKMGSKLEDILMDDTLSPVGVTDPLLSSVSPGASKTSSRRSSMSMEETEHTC

INS1 = assay: INS-1E survival protection against cytokine death – cell-based, luminescence, retest, dose response (AID 449756); conditions: Rattus norvegicus;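 further: cell death triggered by IL-1 beta plus TNF-alpha plus IFN-gamma mixture; protective hits raise ATP signal compared with cytokine alone wells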
Fatty acid synthase [2] = biological target: T2, Fatty acid synthase (Homo sapiens, UniProt P49327); assay: inhibition of human FAS-TE enzyme activity – biochemical, kinetic fluorescence intensity, dose response (AID 624326);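 further: rate of fluorescence rise from hydrolysis of a fluorogenic O-methyl fluorescein ester substrate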
[3] = biological target: T3, Corticotropin-releasing factor receptor 2/Corticotropin-releasing factor-binding protein (Homo sapiens, UniProt P24387+Q13324); assay: activators of CRF receptor 2 with binding protein – uHTS hits, confirmation (AID 602473); conditions: read-out: EC50_Mean
T3 sequence (Q13324 whole entry): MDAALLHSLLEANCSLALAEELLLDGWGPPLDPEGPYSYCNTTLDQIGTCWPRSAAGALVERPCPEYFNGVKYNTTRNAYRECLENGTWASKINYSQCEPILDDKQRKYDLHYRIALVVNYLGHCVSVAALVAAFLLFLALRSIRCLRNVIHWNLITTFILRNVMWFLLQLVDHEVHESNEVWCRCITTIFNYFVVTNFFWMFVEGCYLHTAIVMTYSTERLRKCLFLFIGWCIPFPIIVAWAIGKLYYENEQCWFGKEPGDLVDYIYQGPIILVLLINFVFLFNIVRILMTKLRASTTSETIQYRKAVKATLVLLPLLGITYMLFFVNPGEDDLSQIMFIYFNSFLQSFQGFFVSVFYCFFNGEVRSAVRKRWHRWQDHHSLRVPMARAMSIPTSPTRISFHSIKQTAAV
T3 sequence (P24387 whole entry): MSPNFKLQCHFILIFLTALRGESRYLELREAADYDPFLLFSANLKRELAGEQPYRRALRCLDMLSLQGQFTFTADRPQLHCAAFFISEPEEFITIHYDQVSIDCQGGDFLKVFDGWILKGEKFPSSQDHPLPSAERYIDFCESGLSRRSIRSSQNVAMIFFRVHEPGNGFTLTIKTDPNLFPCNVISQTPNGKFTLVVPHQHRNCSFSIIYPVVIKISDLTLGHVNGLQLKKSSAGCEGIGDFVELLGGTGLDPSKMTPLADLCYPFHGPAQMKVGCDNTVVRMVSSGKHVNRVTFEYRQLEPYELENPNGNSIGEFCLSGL

[4] = biological target: T3, Corticotropin-releasing factor receptor 2/Corticotropin-releasing factor-binding protein; assay: Dose Response confirmation of uHTS hits for small molecule antagonists of the CRF-binding protein and CRF-R2 receptor complex.; conditions: read-out: IC50_Mean
Fatty acid synthase [5] = biological target: T2, Fatty acid synthase; assay: inhibition of human FAS-TE enzyme activity – biochemical, endpoint fluorescence intensity, uHTS hits, dose response (AID 624327);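 further: fluorescence from hydrolysis of an O-methyl fluorescein acyl ester substrate by the enzyme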
[6] = viability of uninfected HEp-2 cells – cell-based, HTS, cytotoxicity control for RSV inhibitor project, dose response (AID 2410); conditions: human respiratory syncytial virus
cells = assay: cells
[7] = biological target: Glucose-6-phosphate 1-dehydrogenase (Homo sapiens, UniProt P11413); assay: inhibition of Homo sapiens G6PD, dose series – biochemical, fluorescence, selectivity assay for P. falciparum G6PD inhibitor project, dose response (AID 504792)
[8] = biological target: DNA dC->dU-editing enzyme APOBEC-3G (Homo sapiens, UniProt Q9HC16); assay: Dose Response confirmation of small molecule APOBEC3G DNA Deaminase Inhibitors via a fluorescence-based single-stranded DNA deaminase assay. [Related pubchem assays (depositor defined):AID493012, AID493028]
Chain of DNA dC->dU-editing enzyme APOBEC-3G (Q9HC16 whole entry): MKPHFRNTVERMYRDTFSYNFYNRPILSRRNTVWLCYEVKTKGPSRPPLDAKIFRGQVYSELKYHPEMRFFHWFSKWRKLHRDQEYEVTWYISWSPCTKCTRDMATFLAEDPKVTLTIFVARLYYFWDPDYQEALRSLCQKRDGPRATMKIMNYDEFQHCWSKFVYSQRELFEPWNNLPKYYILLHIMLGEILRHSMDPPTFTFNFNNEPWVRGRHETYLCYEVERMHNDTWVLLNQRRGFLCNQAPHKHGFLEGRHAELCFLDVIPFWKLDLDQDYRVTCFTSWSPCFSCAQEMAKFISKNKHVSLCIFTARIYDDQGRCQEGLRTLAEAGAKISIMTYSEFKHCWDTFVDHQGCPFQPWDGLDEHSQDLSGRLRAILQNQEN

T2 sequence (P49327 whole entry): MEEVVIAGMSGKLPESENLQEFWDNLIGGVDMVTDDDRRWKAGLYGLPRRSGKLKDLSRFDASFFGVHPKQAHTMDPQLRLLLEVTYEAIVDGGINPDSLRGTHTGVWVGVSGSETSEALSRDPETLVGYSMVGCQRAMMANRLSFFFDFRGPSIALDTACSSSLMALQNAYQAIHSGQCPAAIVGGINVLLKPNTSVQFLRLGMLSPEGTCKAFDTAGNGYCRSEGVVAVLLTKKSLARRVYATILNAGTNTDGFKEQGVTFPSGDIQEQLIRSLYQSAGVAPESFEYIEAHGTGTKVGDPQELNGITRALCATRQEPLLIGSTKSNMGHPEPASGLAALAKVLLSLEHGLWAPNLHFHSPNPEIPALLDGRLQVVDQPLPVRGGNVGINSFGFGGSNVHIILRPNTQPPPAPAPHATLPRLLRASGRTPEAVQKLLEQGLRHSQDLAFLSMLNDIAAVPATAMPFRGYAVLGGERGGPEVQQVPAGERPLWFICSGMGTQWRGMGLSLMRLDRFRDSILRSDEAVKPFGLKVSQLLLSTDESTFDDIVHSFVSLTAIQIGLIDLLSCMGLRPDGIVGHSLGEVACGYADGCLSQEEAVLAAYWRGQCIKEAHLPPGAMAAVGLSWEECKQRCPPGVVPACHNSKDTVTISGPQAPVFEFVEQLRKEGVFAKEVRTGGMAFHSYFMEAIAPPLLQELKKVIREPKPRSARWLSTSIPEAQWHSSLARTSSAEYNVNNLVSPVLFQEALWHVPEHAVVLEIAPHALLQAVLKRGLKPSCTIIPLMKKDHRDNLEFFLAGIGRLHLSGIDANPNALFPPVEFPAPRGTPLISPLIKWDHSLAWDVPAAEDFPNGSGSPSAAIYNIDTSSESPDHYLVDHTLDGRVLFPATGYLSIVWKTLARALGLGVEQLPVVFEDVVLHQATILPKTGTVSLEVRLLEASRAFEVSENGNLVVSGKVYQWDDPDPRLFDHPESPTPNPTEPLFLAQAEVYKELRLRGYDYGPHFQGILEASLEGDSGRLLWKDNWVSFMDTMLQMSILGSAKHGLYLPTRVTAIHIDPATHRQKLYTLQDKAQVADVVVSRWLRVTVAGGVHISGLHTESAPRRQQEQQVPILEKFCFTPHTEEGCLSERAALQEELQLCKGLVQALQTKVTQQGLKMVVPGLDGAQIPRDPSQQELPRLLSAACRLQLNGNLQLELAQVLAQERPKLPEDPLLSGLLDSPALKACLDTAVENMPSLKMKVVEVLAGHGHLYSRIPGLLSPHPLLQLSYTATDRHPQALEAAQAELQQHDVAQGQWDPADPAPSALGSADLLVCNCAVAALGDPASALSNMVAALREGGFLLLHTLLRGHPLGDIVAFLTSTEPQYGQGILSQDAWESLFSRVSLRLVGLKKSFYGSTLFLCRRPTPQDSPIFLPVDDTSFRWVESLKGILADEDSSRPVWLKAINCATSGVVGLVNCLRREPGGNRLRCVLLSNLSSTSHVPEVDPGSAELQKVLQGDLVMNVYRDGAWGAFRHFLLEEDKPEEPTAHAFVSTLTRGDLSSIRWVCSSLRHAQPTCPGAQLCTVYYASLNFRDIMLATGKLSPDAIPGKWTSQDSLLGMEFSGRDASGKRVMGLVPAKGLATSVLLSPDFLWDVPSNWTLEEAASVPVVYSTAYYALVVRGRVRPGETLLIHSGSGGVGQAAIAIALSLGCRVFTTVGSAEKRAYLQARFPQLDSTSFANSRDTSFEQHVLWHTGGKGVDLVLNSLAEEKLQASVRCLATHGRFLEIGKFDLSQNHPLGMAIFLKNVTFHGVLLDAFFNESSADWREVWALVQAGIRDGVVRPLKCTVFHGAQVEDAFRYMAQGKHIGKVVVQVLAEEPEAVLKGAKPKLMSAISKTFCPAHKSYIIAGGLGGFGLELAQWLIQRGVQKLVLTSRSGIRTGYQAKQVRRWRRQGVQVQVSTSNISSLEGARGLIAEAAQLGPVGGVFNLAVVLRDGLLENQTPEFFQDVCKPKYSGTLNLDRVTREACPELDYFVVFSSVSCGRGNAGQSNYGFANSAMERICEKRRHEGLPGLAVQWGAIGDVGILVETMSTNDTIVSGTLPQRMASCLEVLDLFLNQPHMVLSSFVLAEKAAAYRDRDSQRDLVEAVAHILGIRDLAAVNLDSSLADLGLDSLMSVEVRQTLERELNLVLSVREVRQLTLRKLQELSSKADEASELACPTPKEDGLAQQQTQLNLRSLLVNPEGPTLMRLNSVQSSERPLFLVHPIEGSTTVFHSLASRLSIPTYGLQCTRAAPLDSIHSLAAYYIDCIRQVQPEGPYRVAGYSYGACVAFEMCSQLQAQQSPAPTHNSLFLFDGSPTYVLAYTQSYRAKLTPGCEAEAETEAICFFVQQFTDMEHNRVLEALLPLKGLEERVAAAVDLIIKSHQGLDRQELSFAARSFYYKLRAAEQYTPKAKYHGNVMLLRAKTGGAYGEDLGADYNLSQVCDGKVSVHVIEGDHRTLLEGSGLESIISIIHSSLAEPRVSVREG
Chain of Glucose-6-phosphate 1-dehydrogenase (P11413 whole entry): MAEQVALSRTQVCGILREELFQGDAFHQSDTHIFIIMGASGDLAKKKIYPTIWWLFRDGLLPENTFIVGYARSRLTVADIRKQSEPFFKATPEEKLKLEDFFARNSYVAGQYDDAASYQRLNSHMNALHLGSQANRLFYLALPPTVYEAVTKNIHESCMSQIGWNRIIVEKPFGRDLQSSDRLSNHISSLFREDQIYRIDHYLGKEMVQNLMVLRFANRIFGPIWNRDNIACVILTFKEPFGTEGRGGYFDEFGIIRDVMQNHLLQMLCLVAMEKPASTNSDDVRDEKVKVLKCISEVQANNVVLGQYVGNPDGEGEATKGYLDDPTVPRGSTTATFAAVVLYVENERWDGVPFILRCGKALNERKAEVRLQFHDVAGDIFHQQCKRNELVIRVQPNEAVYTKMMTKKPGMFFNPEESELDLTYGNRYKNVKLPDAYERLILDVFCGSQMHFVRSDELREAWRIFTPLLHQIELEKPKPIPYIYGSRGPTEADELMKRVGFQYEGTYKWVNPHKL

Q: With COc1ccc(Cn2c(-c3ccc(C)cc3)c[n+]3ccccc23)cc1 as the molecule, how does the AC50 [1] read?
A: 2.89 µM (active)

Q: And the AC50 (INS1)?
A: 4.52 µM (active)

Q: For C/C=C/C=C/C(=O)OC(C)C(=O)Nc1cc([N+](=O)[O-])ccc1OC (stereo not drawn), which IC50 (Fatty acid synthase [2]) is on record?
A: 4.79 µM (active)

Q: What about the EC50 [3] of the same molecule?
A: > 53 µM (inactive)

Q: And the IC50 [4]?
A: > 47.1 µM (inactive)

Q: And the IC50 (Fatty acid synthase [5])?
A: 4.02 µM (active)

Q: For CCOc1ccccc1N(CC)C(=O)c1ccc2c(=O)n3c(nc2c1)CCCCC3, which IC50 (Fatty acid synthase [2]) is on record?
A: 3.45 µM (active)

Q: What about the IC50 (Fatty acid synthase [5]) of the same molecule?
A: 3.88 µM (active)

Q: For C=CCSC(=S)NC1CCS(=O)(=O)C1 (stereo not drawn), which AC50 [1] is on record?
A: 20.7 µM (active)

Q: And the CC50 [6]?
A: 24.6 µM (active)

Q: For COC(=O)CCC(=O)Nc1sc(Cc2ccccc2)c(C)c1C(N)=O, which IC50 (cells) is on record?
A: 49 µM (active)

Q: And the IC50 [7]?
A: > 80 µM (inactive)

Q: And the IC50 [8]?
A: 31.1 µM (active)

Q: With COC(=O)[C@H](C)NC(=O)c1cc2c3ccccc3nc-2c[nH]1 as the molecule, how does the IC50 [7] read?
A: > 80 µM (inactive)

Q: What about the IC50 [8] of the same molecule?
A: 25.6 µM (active)

Q: With Cc1ccc(-c2c(C(=O)N(C)Cc3ccccc3)oc(=O)c3ccccc23)cc1 as the molecule, how does the IC50 (Fatty acid synthase [2]) read?
A: 12.3 µM (active)

Q: And the IC50 (Fatty acid synthase [5])?
A: 11.6 µM (active)

Q: For CC(C)c1nnc(NC(=O)c2cc3ccccc3o2)s1, which IC50 [7] is on record?
A: > 80 µM (inactive)
